Source: patent publication US20230165252A1, “ACTIVE COMPOUND COMBINATIONS” (Bayer Aktiengesellschaft, priority 2020, published 2023)

Experiments:
Type in all cases: cell-based
[1] = tested on: Colletotrichum lindemuthianum; assay: in vitro-Test with Colletotrichum lindemuthianum (microtiter growth inhibition); conditions: for inhibition of growth at 0.2 ppm: applied alone at 0.2 ppm
Protocol: (§1) The degree of efficacy expressed in % is denoted: 0% means an efficacy, which corresponds to that of the control, while an efficacy of 100% means that no disease is observed.
(§2) If the actual fungicidal activity exceeds the calculated value, then the activity of the combination is super-additive, i.e. a synergistic effect exists. In this case, the efficacy, which was actually observed, must be greater than the value for the expected efficacy (E), that was calculated from the abovementioned formula.
(§3) Example: In Vitro-Test with Fungal Microorganisms
(§4) Wells of 96-well microtiter plates are filled with 10 μl of a preparation of test compound or compound combination in methanol+emulsifier alkylaryl-polyglycol-ether. Thereafter, the solvent is evaporated in a hood. At the next step, 100 μl of liquid potato dextrose medium is given into each well, that has been amended with an appropriate concentration of spores or mycelium suspension of the test fungus.
(§5) With the aid of a photometer, the extinction in all wells is measured at the wavelength of 620 nm.
(§6) The microtiter plates are incubated at 20° C. and 85% relative humidity. The inhibition of growth is determined again photometrically 3-5 days after the application. Efficacy is calculated in relation to the untreated control, 0% efficacy means fungal growth as high as in untreated control while 100% efficacy means no fungal growth is measured.

Parastagonospora nodorum = assay: in vitro-Test with Parastagonospora nodorum (microtiter growth inhibition); conditions: compound alone
Protocol: as §1, §2, §3, §4, §5, §6

Botrytis cinerea = assay: in vitro-Test with Botrytis cinerea (microtiter growth inhibition); conditions: for inhibition of growth at 0.04 ppm: single active at 0.04 ppm; for inhibition of growth at 0.2 ppm: single active at 0.2 ppm
Summary of the method: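 Test compound or combination in methanol plus alkylaryl-polyglycol-ether emulsifier was dried into microtiter wells, then overlaid with liquid potato dextrose medium seeded with spores or mycelium. Plates were held at 20° C. and 85% relative humidity, and growth was read photometrically at 620 nm after 3-5 days. Efficacy is relative to untreated control.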

[2] = Colletotrichum lindemuthianum, read-out: Efficacy %
[3] = Parastagonospora nodorum, read-out: Efficacy %
[4] = Parastagonospora nodorum, 0.2 ppm, read-out: Efficacy %
[5] = Botrytis cinerea, read-out: Efficacy %

OC(Cc1ccccc1Cl)(Cn1nc[nH]c1=S)C1(Cl)CC1 (stereo not drawn) [(1.018) prothioconazole]
inhibition of growth at 0.2 ppm [1, 2]: 73% | inhibition of growth at 0.008 ppm (Parastagonospora nodorum; Parastagonospora nodorum, 0.008 ppm, read-out: Efficacy %): 28% | inhibition of growth at 0.04 ppm (Parastagonospora nodorum; [3]): 91% | inhibition of growth at 0.2 ppm (Parastagonospora nodorum; [4]): 99% | inhibition of growth at 1 ppm (Parastagonospora nodorum; [3]): 100% | Efficacy % (Parastagonospora nodorum; 0.2 ppm): 99% | inhibition of growth at 0.04 ppm (Botrytis cinerea; [5]): 63% | inhibition of growth at 0.2 ppm (Botrytis cinerea; [5]): 100%

CC(C)(C)C(O)(CCc1ccc(Cl)cc1)Cn1cncn1 (stereo not drawn) [(1.021) tebuconazole]
inhibition of growth at 0.008 ppm ([1]; Colletotrichum lindemuthianum, applied alone at 0.008 ppm, read-out: Efficacy %): 7% | inhibition of growth at 0.04 ppm ([1]; Colletotrichum lindemuthianum, applied alone at 0.04 ppm, read-out: Efficacy %): 20% | inhibition of growth at 0.2 ppm [1, 2]: 2% | inhibition of growth at 1 ppm ([1]; Colletotrichum lindemuthianum, applied alone at 1.0 ppm, read-out: Efficacy %): 28% | inhibition of growth at 0.04 ppm (Parastagonospora nodorum; [3]): 10% | inhibition of growth at 0.2 ppm (Parastagonospora nodorum; [4]): 79% | inhibition of growth at 1 ppm (Parastagonospora nodorum; [3]): 98% | inhibition of growth at 0.008 ppm (Botrytis cinerea; Botrytis cinerea, single active at 0.008 ppm, read-out: Efficacy %): 2% | inhibition of growth at 0.04 ppm (Botrytis cinerea; [5]): 5% | inhibition of growth at 0.2 ppm (Botrytis cinerea; [5]): 39%

O=C(NCCc1ncc(C(F)(F)F)cc1Cl)c1ccccc1C(F)(F)F [(2.005) fluopyram]
inhibition of growth at 0.8 ppm ([1]; Colletotrichum lindemuthianum, applied alone at 0.8 ppm, read-out: Efficacy %): 14% | inhibition of growth at 4 ppm ([1]; Colletotrichum lindemuthianum, applied alone at 4 ppm, read-out: Efficacy %): 7% | inhibition of growth at 20 ppm ([1]; Colletotrichum lindemuthianum, applied alone at 20 ppm, read-out: Efficacy %): 19% | inhibition of growth at 0.8 ppm (Parastagonospora nodorum; Parastagonospora nodorum, 0.8 ppm, read-out: Efficacy %): 32% | inhibition of growth at 4 ppm (Parastagonospora nodorum; Parastagonospora nodorum, 4 ppm, read-out: Efficacy %): 41% | inhibition of growth at 20 ppm (Parastagonospora nodorum; Parastagonospora nodorum, 20 ppm, read-out: Efficacy %): 65% | inhibition of growth at 0.8 ppm (Botrytis cinerea; Botrytis cinerea, single active at 0.8 ppm, read-out: Efficacy %): 66% | inhibition of growth at 4 ppm (Botrytis cinerea; Botrytis cinerea, single active at 4 ppm, read-out: Efficacy %): 64%

N#Cc1ccccc1NC(=O)c1snc(Cl)c1Cl [(6.002) isotianil]
Efficacy % ([1]; applied alone at 0.8 ppm): 7% | Efficacy % ([1]; applied alone at 4 ppm): 19% | Efficacy % ([1]; applied alone at 20 ppm): 0% | Efficacy % ([1]; applied alone at 100 ppm): 17% | Efficacy % (Botrytis cinerea; single active at 4 ppm): 0% | Efficacy % (Botrytis cinerea; single active at 20 ppm): 0% | Efficacy % (Botrytis cinerea; single active at 100 ppm): 0%
